The values that follow come from US9073876B2, “Flap modulators” (JANSSEN PHARMACEUTICA NV, priority 2013, dated 2015).

One assay has as its target human FLAP (Homo sapiens (Human), UniProt P20292). Kind of assay: FLAP binding assay (HTRF). Conditions: human FLAP-containing membranes, HTRF format; average of two assay plates, duplicates; read-out: FLAP Binding wild type HTRF Ki. The gist of the method: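 Samples were run in duplicate on each of two assay plates, the results were averaged, and the signal was expressed as an HTRF ratio.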
Background: In TR-FRET formats the signal depends on donor and acceptor labels being close together.

The test system of assay [1] is leukotriene pathway in human whole blood (LTB4 levels). The experiment in a line: Human whole blood assay (LTB4). The format is cell-based. Particulars: human whole blood diluted 1:1 in RPMI, stimulated with calcium ionophore A23187; single replicate. The gist of the method:
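Blood (heparin) diluted 1:1 RPMI; compound pre-incubation 15 min, 37° Celsius; A23187 7 μg/mL, 30 min, 37° Celsius; plasma LTB4 by commercial kit. IC50 via 4-parameter equation.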

pIC50, pKi: −log10 of the molar value. Where a name gives a salt, the structure may show the parent alone.

Sequence of human FLAP (P20292 whole entry): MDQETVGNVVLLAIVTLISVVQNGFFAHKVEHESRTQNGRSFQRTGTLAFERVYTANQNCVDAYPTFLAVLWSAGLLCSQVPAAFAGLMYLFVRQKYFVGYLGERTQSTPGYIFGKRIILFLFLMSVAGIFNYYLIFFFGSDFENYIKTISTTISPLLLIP

A word on the pKi: it is the Ki on a negative log10 scale, so that one unit is a factor of ten. As usually defined, the pIC50 is −log10 of the IC50, conventionally taken in molar units. As to `Cc1cc(Oc2c(C3CCC3)ccc(-c3cnc(N)cn3)c2F)ccc1S(C)(=O)=O` [Example 126, 5-{4-Cyclobutyl-2-fluoro-3-[3-methyl-4-(methylsulfonyl)phenoxy]phenyl}pyrazin-2-amine], on human FLAP, the negative-log Ki (pKi) is 7.97. The negative-log IC50 (pIC50) in assay [1] is 6.39.
Taken in the same sequence, the figures for `Nc1cnc(-c2ccc(C3CCC3)c(OCc3cccnc3)c2F)cn1` [Example 13, 5-[4-Cyclobutyl-2-fluoro-3-(pyridin-3-ylmethoxy)phenyl]pyrazin-2-amine] were 6.60 and 5.89.
As to `Cc1cc(C)nc(Oc2c(C3CCC3)ccc(-c3cnc(N)nc3)c2F)n1` [Example 167, 5-{4-Cyclobutyl-3-[(4,6-dimethylpyrimidin-2-yl)oxy]-2-fluorophenyl}pyrimidin-2-amine], the pKi at human FLAP is 7.83. Further, the pIC50 in assay [1] was 7.34.
As to `Nc1cnc(-c2ccc(C3CCC3)c(OCC(O)Cn3cncn3)c2F)cn1` (racemic) [Example 62, racemic 1-(3-(5-Aminopyrazin-2-yl)-6-cyclobutyl-2-fluorophenoxy)-3-(1H-1,2,4-triazol-1-yl)propan-2-ol], the pKi at human FLAP was 6.50. Also, the pIC50 in assay [1] was 6.08.
Taken in the same sequence, the figures for `Cc1cc(C)nc(Oc2c(C3CCC3)ccc(-c3cnc(N)cn3)c2F)n1` [Example 89, 5-{4-Cyclobutyl-3-[(4,6-dimethylpyrimidin-2-yl)oxy]-2-fluorophenyl}pyrazin-2-amine] were 8.40 and 7.65.
Taken in the same sequence, the figures for `CC(C)(C)c1ccc(-c2cnc(N)nc2)c(F)c1Oc1ncccn1` [Example 207, 5-[4-tert-Butyl-2-fluoro-3-(pyrimidin-2-yloxy)phenyl]pyrimidin-2-amine] were 7.32 and 7.14.
Consider `Nc1cnc(-c2ccc(C3CCC3)c(OCC(O)CN3CCOCC3)c2F)cn1` (racemic) [Example 255, 1-(3-(5-aminopyrazin-2-yl)-6-cyclobutyl-2-fluorophenoxy)-3-morpholinopropan-2-ol], for which, at human FLAP, the pKi is 5.94. Also, the pIC50 in assay [1] was 5.94.
For the compound `CS(=O)(=O)c1ccc(Oc2c(C3CCC3)ccc(-c3cnc(N)cn3)c2F)nc1` [Example 239, 5-(4-cyclobutyl-2-fluoro-3-((5-(methylsulfonyl)pyridin-2-yl)oxy)phenyl)pyrazin-2-amine], the negative logarithm of the Ki (pKi) at human FLAP was 8.08. Further, the pIC50 in assay [1] was 6.71.
Consider `Fc1c(-c2cnc3c(c2)OCCN3)ccc(C2CCC2)c1Oc1cccc(C(F)(F)F)n1` [Example 194, 7-(4-Cyclobutyl-2-fluoro-3-{[6-(trifluoromethyl)pyridin-2-yl]oxy}phenyl)-3,4-dihydro-2H-pyrido[3,2-b][1,4]oxazine], for which the pKi on human FLAP is 8.54. The negative logarithm of the IC50 (pIC50) in assay [1] was 6.77.
For the compound `Nc1cnc(-c2ccc(C3CCC3)c(Oc3cnccn3)c2F)cn1` [Example 259, 5-(4-Cyclobutyl-2-fluoro-3-(pyrazin-2-yloxy)phenyl)pyrazin-2-amine], the negative-log Ki (pKi) on human FLAP was 8.15. Also, the negative-log IC50 (pIC50) in assay [1] is 6.87.
Taken in the same sequence, the figures for `CCOC(=O)CCCOc1c(C2CCC2)ccc(-c2cnc(N)cn2)c1F` [Example 245, Ethyl 4-(3-(5-aminopyrazin-2-yl)-6-cyclobutyl-2-fluorophenoxy)butanoate] were 7.21 and 5.55.
Taken in the same sequence, the figures for `Cc1ccnc(Oc2c(C3CCC3)ccc(-c3cnc(N)cn3)c2F)n1` [Example 69, 5-{4-cyclobutyl-2-fluoro-3-[(4-methylpyrimidin-2-yl)oxy]phenyl}pyrazin-2-amine] were 7.52 and 7.13.
Consider `COc1c(C2CCC2)ccc(-c2cnc3[nH]cnc3c2)c1F` [Example 183, 6-(4-Cyclobutyl-2-fluoro-3-methoxyphenyl)-3H-imidazo[4,5-b]pyridine], for which the negative logarithm of the Ki (pKi) on human FLAP was 6.48. Further, in assay [1], the pIC50 was less than 5.00.
Take `NC(=O)c1ccnc(Oc2c(C3CCC3)ccc(-c3cnc(N)nc3)c2F)n1` [Example 169, 2-[3-(2-Aminopyrimidin-5-yl)-6-cyclobutyl-2-fluorophenoxy]pyrimidine-4-carboxamide]: the pKi at human FLAP is 6.69. The pIC50 in assay [1] was 6.57.
Take `Nc1ncc(-c2ccc(C3CCC3)c(Oc3cc(O)ncn3)c2F)cn1` [Example 171, 6-[3-(2-Aminopyrimidin-5-yl)-6-cyclobutyl-2-fluorophenoxy]pyrimidin-4-ol trifluoroacetate]: the negative logarithm of the Ki (pKi) at human FLAP was 7.40. Further, the pIC50 in assay [1] is 6.60.
Taken in the same sequence, the figures for `Nc1cnc(-c2ccc(C3CCC3)c(Oc3ccnc(Cl)n3)c2F)cn1` [Example 137, 5-{3-[(2-Chloropyrimidin-4-yl)oxy]-4-cyclobutyl-2-fluorophenyl}pyrazin-2-amine] were 8.43 and 7.29.
Taken in the same sequence, the figures for `Nc1cnc(-c2ccc(C3CCC3)c(Oc3cc(N4CCC4)ncn3)c2F)cn1` [Example 138, 5-{3-[(6-Azetidin-1-ylpyrimidin-4-yl)oxy]-4-cyclobutyl-2-fluorophenyl}pyrazin-2-amine trifluoroacetate salt] were 8.26 and 7.15.
Taken in the same sequence, the figures for `Nc1cnc(-c2ccc(C3CCC3)c(OCC(O)Cn3ccnn3)c2F)cn1` (racemic) [Example 63, racemic 1-(3-(5-Aminopyrazin-2-yl)-6-cyclobutyl-2-fluorophenoxy)-3-(1H-1,2,3-triazol-1-yl)propan-2-ol] were 6.92 and 6.67.
Regarding `CC(C)Cc1ccc(-c2cnc(N)cn2)c(F)c1Oc1ncccn1` [Example 323, 5-(2-Fluoro-4-isobutyl-3-(pyrimidin-2-yloxy)phenyl)pyrazin-2-amine], the negative logarithm of the Ki (pKi) at human FLAP is 6.68. Moreover, the negative-log IC50 (pIC50) in assay [1] was 6.85.
Taken in the same sequence, the figures for `Nc1cnc(-c2ccc(C3CCC3)c(OCc3ccc(Cl)cc3)c2F)cn1` [Example 36, 5-{3-[(4-Chlorobenzyl)oxy]-4-cyclobutyl-2-fluorophenyl}pyrazin-2-amine] were 6.66 and 5.59.
Regarding `Nc1cnc(-c2ccc(C3CCC3)c(Oc3nccc(N4CCC5(CC4)OCCCO5)n3)c2F)cn1` [Example 241, 5-(3-((4-(1,5-dioxa-9-azaspiro[5.5]undecan-9-yl)pyrimidin-2-yl)oxy)-4-cyclobutyl-2-fluorophenyl)pyrazin-2-amine], the pKi at human FLAP was 8.92. Besides, the negative-log IC50 (pIC50) in assay [1] is 7.68.
Taken in the same sequence, the figures for `CC(C)Cc1ccc(-c2cnc(N)cn2)c(F)c1Oc1nccc(N)n1` [Example 328, 2-(3-(5-Aminopyrazin-2-yl)-2-fluoro-6-isobutylphenoxy)pyrimidin-4-amine] were 6.95 and 6.51.
Taken in the same sequence, the figures for `Nc1ccc(-c2ccc(C3CCC3)c(OCc3ccc(C(=O)O)cc3)c2F)cn1` [Example 181, 4-((3-(6-Aminopyridin-3-yl)-6-cyclobutyl-2-fluorophenoxy)methyl)benzoic acid] were 7.39 and 5.00.
Taken in the same sequence, the figures for `Nc1cnc(-c2ccc(C3CCC3)c(Oc3cc(N)nc(Cc4ccccc4)n3)c2F)cn1` [Example 146, 6-[3-(5-Aminopyrazin-2-yl)-6-cyclobutyl-2-fluorophenoxy]-2-benzylpyrimidin-4-amine] were 9.40 and 8.35.
For the compound `Nc1cnc(-c2ccc(C3CCC3)c(Oc3nc(N)c4ccccc4n3)c2F)cn1` [Example 272, 2-[3-(5-Aminopyrazin-2-yl)-6-cyclobutyl-2-fluorophenoxy]quinazolin-4-amine], the negative-log Ki (pKi) on human FLAP is 9.30. Further, in assay [1], the pIC50 was 7.38.
For `CC(C)(C)c1ccc(-c2cnc(N)cn2)c(F)c1Oc1ncccn1` [Example 201, 5-[4-tert-Butyl-2-fluoro-3-(pyrimidin-2-yloxy)phenyl]pyrazin-2-amine], the pKi on human FLAP was 8.07. The pIC50 in assay [1] was 7.29.
Taken in the same sequence, the figures for `Nc1cnc(-c2ccc(C3CCC3)c(OCc3cccc(S(F)(F)(F)(F)F)c3)c2F)cn1` [Example 80, 5-(4-Cyclobutyl-2-fluoro-3-{[3-(pentafluoro-lambda~6~- sulfanyl)benzyl]oxy}phenyl)pyrazin-2-amine] were 6.52 and 5.48.
Taken in the same sequence, the figures for `Nc1cnc(-c2ccc(C3CCC3)c(OCc3ccccc3C(=O)O)c2F)cn1` [Example 46, 2-{[3-(5-Aminopyrazin-2-yl)-6-cyclobutyl-2-fluorophenoxy]methyl}benzoic acid] were 8.10 and 5.25.
Taken in the same sequence, the figures for `Nc1cnc(-c2ccc(C3CCC3)c(OCc3ccccc3Cl)c2F)cn1` [Example 34, 5-{3-[(2-Chlorobenzyl)oxy]-4-cyclobutyl-2-fluorophenyl}pyrazin-2-amine] were 6.52 and 5.80.
Take `N#Cc1cccc(COc2c(C3CCC3)ccc(-c3cnc4c(c3)OCCN4)c2F)c1` [Example 187, 3-{[6-Cyclobutyl-3-(3,4-dihydro-2H-pyrido[3,2-b][1,4]oxazin-7-yl)-2-fluorophenoxy]-methyl}-benzonitrile]: the pKi on human FLAP was 7.92. The negative logarithm of the IC50 (pIC50) in assay [1] was 6.45.
For the compound `COc1cc(Oc2c(C3CCC3)ccc(-c3cnc4c(c3)OCCN4)c2F)ncn1` [Example 227, 7-(4-cyclobutyl-2-fluoro-3-((6-methoxypyrimidin-4-yl)oxy)phenyl)-3,4-dihydro-2H-pyrido[3,2-b][1,4]oxazine], the pKi at human FLAP is 8.07. Further, the pIC50 in assay [1] is 6.48.
Taken in the same sequence, the figures for `Oc1c(C2CCC2)ccc(-c2cnc3c(c2)CCN3)c1F` [Example 199, 6-Cyclobutyl-3-(2,3-dihydro-1H-pyrrolo[2,3-b]pyridin-5-yl)-2-fluorophenol] were 7.62 and 5.98.
Regarding `Nc1cnc(-c2ccc(C3CCC3)c(OCCNc3ccncn3)c2F)cn1` [Example 297, N-{2-[3-(5-Aminopyrazin-2-yl)-6-cyclobutyl-2-fluorophenoxy]ethyl}pyrimidin-4-amine], the negative logarithm of the Ki (pKi) at human FLAP is 7.84. The negative logarithm of the IC50 (pIC50) in assay [1] was 6.58.
